In ChEMBL document CHEMBL4033752, “Discovery of Potent and Selective Tricyclic Inhibitors of Bruton's Tyrosine Kinase with Improved Druglike Properties” (ACS Med Chem Lett, 2017):
Activity calls are given as the source filed them. The rule behind the calls is not given here.

Key:
[1] = Oral bioavailability in rat at 5 mg/kg; type: ADME, organism-based; conditions: in vivo
[2] = Apparent permeability from apical side to basolateral side in MDCK cells at 10 uM after 3 hrs by LC-MS/MS analysis; type: ADME, cell-based, Canis lupus familiaris; conditions: dog
[3] = buffer, pH 7.4
Description: Kinetic solubility of the compound at pH 7.4

[4] = Total clearance in rat at 1 mg/kg, iv; type: ADME, organism-based; conditions: in vivo
[5] = biological target: Tyrosine-protein kinase BTK (Mus musculus, UniProt P35991)
Tyrosine-protein kinase BTK (Mus musculus, UniProt P35991), sequence (P35991 whole entry): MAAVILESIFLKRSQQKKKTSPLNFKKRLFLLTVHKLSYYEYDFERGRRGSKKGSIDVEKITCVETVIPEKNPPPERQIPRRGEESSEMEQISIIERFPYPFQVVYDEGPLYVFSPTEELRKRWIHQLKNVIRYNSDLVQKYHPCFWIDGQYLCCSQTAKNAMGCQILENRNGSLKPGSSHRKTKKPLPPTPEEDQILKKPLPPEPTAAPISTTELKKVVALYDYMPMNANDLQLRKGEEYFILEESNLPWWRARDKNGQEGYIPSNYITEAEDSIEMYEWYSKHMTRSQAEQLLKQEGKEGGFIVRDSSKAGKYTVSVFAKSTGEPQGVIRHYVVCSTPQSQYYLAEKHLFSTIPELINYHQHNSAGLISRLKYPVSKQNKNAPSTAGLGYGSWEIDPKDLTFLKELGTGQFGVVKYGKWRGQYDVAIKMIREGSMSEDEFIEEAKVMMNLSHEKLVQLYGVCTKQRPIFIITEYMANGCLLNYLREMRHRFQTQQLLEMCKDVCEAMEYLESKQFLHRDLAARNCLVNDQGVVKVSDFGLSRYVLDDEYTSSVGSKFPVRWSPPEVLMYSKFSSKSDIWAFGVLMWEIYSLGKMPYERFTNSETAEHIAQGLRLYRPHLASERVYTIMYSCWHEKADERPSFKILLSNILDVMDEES

[6] = Total clearance in cynomolgus monkey; type: ADME, Macaca fascicularis; conditions: in vivo
Rattus norvegicus [7] = test: Oral bioavailability in rat at 100 mg/kg; type: ADME, organism-based; conditions: in vivo
[8] = Total clearance in mouse; type: ADME, organism-based; conditions: in vivo
Canis familiaris = test: Oral bioavailability in dog at 5 mg/kg; type: ADME, organism-based, Canis lupus familiaris; conditions: in vivo
Mus musculus [9] = test: Oral bioavailability in mouse at 100 mg/kg; type: ADME, organism-based; conditions: in vivo
Mus musculus [10] = test: Oral bioavailability in mouse at 5 mg/kg; type: ADME, organism-based; conditions: in vivo
Rattus norvegicus [11] = test: Antiinflammatory activity in Lewis rat CIA model assessed as reduction in ankle thickness administered via oral gavage as bid measured between day 10 and day 17; type: functional
[12] = Total clearance in dog; type: ADME, Canis lupus familiaris; conditions: in vivo
[13] = biological target: T1, Tyrosine-protein kinase BTK (Homo sapiens, UniProt Q06187)
T1 sequence (Q06187 whole entry): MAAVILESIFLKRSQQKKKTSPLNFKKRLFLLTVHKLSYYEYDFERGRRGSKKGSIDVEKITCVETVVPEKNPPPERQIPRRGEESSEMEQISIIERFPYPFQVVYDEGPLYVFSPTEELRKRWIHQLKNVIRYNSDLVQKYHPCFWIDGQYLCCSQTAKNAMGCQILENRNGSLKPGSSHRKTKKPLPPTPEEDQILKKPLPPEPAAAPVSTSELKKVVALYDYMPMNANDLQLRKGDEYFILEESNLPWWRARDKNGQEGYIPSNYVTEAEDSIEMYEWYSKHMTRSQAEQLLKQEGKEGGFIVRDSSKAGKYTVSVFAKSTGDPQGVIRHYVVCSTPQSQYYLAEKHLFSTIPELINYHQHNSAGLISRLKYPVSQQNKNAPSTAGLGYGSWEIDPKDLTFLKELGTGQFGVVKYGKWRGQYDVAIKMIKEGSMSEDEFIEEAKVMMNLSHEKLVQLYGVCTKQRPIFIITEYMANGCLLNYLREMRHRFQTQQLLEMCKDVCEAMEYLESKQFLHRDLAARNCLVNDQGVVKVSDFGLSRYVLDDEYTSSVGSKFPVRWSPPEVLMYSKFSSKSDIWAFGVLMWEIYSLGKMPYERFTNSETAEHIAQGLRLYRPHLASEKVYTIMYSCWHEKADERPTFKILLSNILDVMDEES
Description: Inhibition of BTK in goat anti-human IgM F(ab')2-stimulated human whole blood assessed as suppression of BCR-induced CD69 expression on B cells preincubated for 1 hr followed by blood stimulation measured after 18 hrs by FACS analysis

[14] = biological target: T1, Tyrosine-protein kinase BTK; remark: listed apart in the source
Description: Inhibition of recombinant human full length His-tagged BTK expressed in baculovirus expression system by Z-LYTE assay

Rattus norvegicus [15] = test: Antiinflammatory activity in Lewis rat CIA model assessed as reduction in ankle thickness at 0.05 mg/kg measured between day 10 and day 17; type: functional, organism-based

Structure (SMILES)	bioavailability [1] [%]	Papp A→B at 3 h, 10 µM [2] [×10⁻⁶ cm/s]	Kinetic_solubility [3] [µM]	clearance [4] [mL/min/kg]	IC50 [5] [nM]	IC50 [14] [nM]	also measured
Cn1cc(-c2cccc(N3CCc4c(sc5c4CCCC5)C3=O)c2CO)cc(Nc2ccncn2)c1=O	90						
Cn1cc(-c2cc(F)cc(N3CCn4c(cc5c4CCCC5)C3=O)c2CO)cc(Nc2ccc(N3CCN(C4COC4)CC3)cn2)c1=O	27	> 10	73	20	10		
Cn1cc(-c2cccc(N3CCc4c(sc5c4CC(C)(C)C5)C3=O)c2CO)cc(Nc2ccncn2)c1=O							clearance [6]: 17 mL/min/kg; F (Rattus norvegicus [7]): 23%; clearance [8]: 22 mL/min/kg; F (Canis familiaris): 27%; F (Mus musculus [9]): 45%; F (Mus musculus [10]): 77%; Activity (Rattus norvegicus [11]): Dose-dependent effect; clearance [12]: 7 mL/min/kg
Cn1cc(-c2cccc(N3CCn4c(cc5c4CCCC5)C3=O)c2CO)cc(Nc2ccc(N3CCN(C4COC4)CC3)cn2)c1=O	46	1 to 10	99	14	137	8	IC50 [13]: 69 nM
Cn1cc(-c2cccc(N3CCc4cc(C(C)(C)C)ccc4C3=O)c2CO)cc(Nc2ccncn2)c1=O			2		51		
CN1CCN(c2ccc(Nc3cc(-c4cc(F)cc(N5CCn6c(cc7c6CCCC7)C5=O)c4CO)cn(C)c3=O)nc2)CC1	52	1 to 10	71	37	22		
CN1CCN(c2ccc(Nc3cc(-c4cccc(N5CCn6c(cc7c6CCCC7)C5=O)c4CO)cn(C)c3=O)nc2)CC1	20	1 to 10	115	40	107	4	IC50 [13]: 45 nM
C[C@@H]1C[C@H]2[C@@H]3CCC4=CC(=O)C=C[C@]4(C)[C@@]3(F)[C@@H](O)C[C@]2(C)[C@@]1(O)C(=O)CO							Activity (Rattus norvegicus [15]): Active
Cc1c(NC(=O)c2cc3c(s2)CCCC3)cccc1-c1cc(Nc2ccncn2)c(=O)n(C)c1	45			2	740	42	
CN1CCN(c2ccc(Nc3cc(-c4cccc(N5CCc6c(sc7c6CC(C)(C)C7)C5=O)c4CO)cn(C)c3=O)nc2)CC1	37			29			
